Experimental findings from US20260265304A1, “PEPTIDE INHIBITORS OF FOCAL ADHESION KINASE ACTIVITY AND USES THEREOF” (Arizona Board of Regents on Behalf of the University of …, priority 2019, published 2026) are described below.

Several values for one entry are separate records, joined by “and”; a condition that tells them apart may be missing. Identical values can stand only once. Like-named read-outs stand apart in the source and are kept apart here. Positions of bridges follow the written chain, without caps; N, C: chain ends. Non-standard residues stand in square brackets, D forms with d. Residues, ends and D or L forms follow the SMILES beside them. *: point of attachment. Myristoyl = CCCCCCCCCCCCCC(=O)*; R8 = C=CCCCCCC[C@@](C)(N)C(=O)O; S5 = C=CCCC[C@](C)(N)C(=O)O

Assay [1] has as its target T1, FAK FAT domain (paxillin-FAT binding) (Homo sapiens, UniProt Q05397).
T1 construct: FP Buffer containing 20 μM FAT and 0.1 μM TAMRA-LD2
T1 sequence (Q05397 914-1045 limits assumed): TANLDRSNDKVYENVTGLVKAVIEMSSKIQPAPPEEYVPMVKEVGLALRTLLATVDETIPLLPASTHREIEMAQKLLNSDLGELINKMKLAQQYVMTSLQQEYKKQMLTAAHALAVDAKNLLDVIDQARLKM
The assay can be described thus: Competition fluorescence polarization (FP) assay, inhibition of TAMRA-LD2 binding to FAT. As to the method: The FP assay buffer used was 20 mM Tris, 200 mM NaCl, 0.05% β-me, 0.1% Triton X-100, 5% glycerol, and 1× Halt protease inhibitor cocktail. […] Bodipy TMR FP optical module (2100-4100) was used as the mirror.
Wells with no FAT were used as a baseline value which was subtracted from the raw values to produce ΔmP values. The plate was read at every hour for four hours to test for time differences in IC50. The titration data was processed through GraphPad Prism to produce a dose response curve and a calculated IC50 with standard error (SE). A four-parameter dose-response inhibition model was utilized and the bottom fit was constrained to the lower plateau of the curve. Ki was determined from the following calculation:
P0 is the concentration of free protein and KD is calculated from the saturation curve. 150 is calculated by the following equation:
where PT is the total protein concentration, LT is the total labeled-ligand concentration, P0 is the positive root of P0^2+(KD+LT)*P0−PT, PL0=P−P0, PL50=PL0/2, L0=LT-PL0, and L50=LT-PL50.
In general terms: Polarisation of emitted light reports the rotation of a fluorescent probe.

Assay [2] has as its target T2, FAK FAT domain (biotinylated Avitag-FAT protein) (Homo sapiens, UniProt Q05397).
T2 construct: biotinylated Avitag-FAT protein was diluted in running buffer
T2 sequence (Q05397 914-1045 limits assumed): T1 sequence (Q05397 914-1045 limits assumed)
The assay can be described thus: Surface plasmon resonance (SPR) binding to immobilised FAT protein. The note with it: for Kd: FAT protein immobilised, peptide 200 μM-0.01 μM, 1:1 binding model; for binding and inhibitory properties (SPR/FP) in words, compared to 1907: SAR discussion of SPR and FP data. As to the method: SPR binding studies were performed on a ForteBio Pioneer FE SPR system. In brief, a SADH Streptavidin in Dextran Hydrogel biosensor (ForteBio) was docked onto the flow cell and preconditioned with two injections of 10 mM NaOH, 1 M NaCl for 1 min at 50 μL/min. […] Empty channel 2 served as the reference control. After achieving a stable baseline, a concentration series (200 μM-0.01 μM) of peptide was prepared in final running buffer (100 mM Tris-HCl, 200 mM NaCl, 0.05% Tween-20, 5% DMSO) and injected using the OneStep gradient injection method at a flow rate of 75 μL/min. […] Raw SPR data were appropriately processed in Qdat software (ForteBio) by normalizing the baseline prior to injection, aligning the channels, subtraction of the reference channel, and blank subtraction. Kinetic data were fitted to a pseudo-first order 1:1 interaction binding model using to calculate KD. In addition, a steady-state model and Req data points were used to validate the binding affinity. Visual inspection of the SPR sensograms was performed to verify appropriate model fitting, lack of mass transport effects, return to baseline, and lack of irregular kinetics.
(In general: In SPR one partner is held on a chip, and binding of the other changes the refractive index at the surface.)

As usually defined, the Ki is the equilibrium dissociation constant of an inhibitor or competing ligand from its target. As a reminder, the Kd is the free concentration of one partner at which half of the binding sites on the other are occupied at equilibrium, for simple one-to-one binding.

`CC(=O)N[C@@H](CC(N)=O)C(=O)N[C@@H](CC(C)C)C(=O)N[C@]1(C)CCCCCCC=CCCC[C@@](C)(C(=O)N[C@@H](CCC(=O)O)C(=O)N[C@@H](CC(C)C)C(=O)N[C@@H](CC(N)=O)C(N)=O)NC(=O)[C@H](CC(C)C)NC(=O)[C@H](CC(C)C)NC(=O)[C@H](C)NC(=O)[C@H](CC(=O)O)NC(=O)[C@H](CC(C)C)NC(=O)[C@H](C)NC1=O` [Peptide 2010, Ac-NLR8ALDALLS5ELN-NH2] (Ac-NL[R8]ALDALL[S5]ELN-NH2; staple 3-10) yielded a Ki in assay [1] of 68.5 µM. For the same compound, in assay [2] (SPR KD), the dissociation constant (Kd) is 12.6 µM.
Regarding `CC(=O)N[C@@H](CC(N)=O)C(=O)N[C@@H](CC(C)C)C(=O)N[C@@H](CO)C(=O)N[C@@H](CCC(=O)O)C(=O)N[C@@]1(C)CCCC=CCCC[C@@](C)(C(=O)N[C@@H](CC(C)C)C(=O)N[C@@H](CCC(=O)O)C(=O)N[C@@H](CC(C)C)C(=O)N[C@@H](CC(N)=O)C(N)=O)NC(=O)[C@H](CC(C)C)NC(=O)[C@H](CCCNC(=N)N)NC(=O)[C@H](CC(=O)O)NC1=O` [Peptide 1919, Ac-NLSES5DRLS5LELN-NH2] (Ac-NLSE[S5]DRL[S5]LELN-NH2; staple 5-9), the Ki in assay [1] (read-out: FP Ki) came to 38.6 µM. Besides, the Kd in assay [2] (read-out: SPR KD) stood at 68.9 µM. The “binding and inhibitory properties (SPR/FP) in words, compared to 1907” value in assay [2] was “did not show much activity compared to 1907”.
As for `CC(C)C[C@@H]1NC(=O)[C@H](CCCNC(=N)N)NC(=O)[C@H](CC(=O)O)NC(=O)[C@H](CC(C)C)NC(=O)[C@](C)(NC(=O)[C@H](CO)NC(=O)[C@H](CC(C)C)NC(=O)[C@@H](N)CC(N)=O)CCCCCCC=CCCC[C@@](C)(C(=O)N[C@@H](CC(C)C)C(=O)N[C@@H](CC(N)=O)C(N)=O)NC(=O)[C@H](CC(N)=O)NC(=O)[C@H](CC(C)C)NC1=O` [Peptide 1906, H-NLSR8LDRLLNS5LN-NH2] (H-NLS[R8]LDRLLN[S5]LN-NH2; staple 4-11), in assay [1] (read-out: FP Ki), the Ki is greater than 1250 µM. For the same compound, in assay [2] (read-out: SPR KD), the dissociation constant (Kd) was greater than 200 µM.
`CC(=O)N[C@@H](CC(N)=O)C(=O)N[C@@H](CC(C)C)C(=O)N[C@@H](CO)C(=O)N[C@@H](CCC(=O)O)C(=O)N[C@@H](CC(C)C)C(=O)N[C@@H](CC(=O)O)C(=O)N[C@@H](CCCNC(=N)N)C(=O)N[C@@]1(C)CCCC=CCCC[C@@](C)(C(=O)N[C@@H](CC(N)=O)C(N)=O)NC(=O)[C@H](CCC(=O)O)NC(=O)[C@H](CC(C)C)NC(=O)[C@H](CC(C)C)NC1=O` [Peptide 2015] (Ac-NLSELDR[S5]LLE[S5]N-NH2; staple 8-12): the inhibition constant Ki in assay [1] stood at 114 µM. Moreover, the “binding and inhibitory properties (SPR/FP) in words, compared to 1907” value in assay [2] is recorded as “did not show much activity compared to 1907”. In assay [2] (SPR KD), the Kd was found to be 47.5 µM.
In the case of `CC(=O)N[C@@H](CO)C(=O)N[C@@H](CC(C)C)C(=O)NCC(=O)N[C@@H](CO)C(=O)N[C@@H](CC(N)=O)C(=O)N[C@@H](CC(C)C)C(=O)N[C@]1(C)CCCCCCC=CCCC[C@@](C)(C(=O)N[C@@H](CCC(=O)O)C(=O)N[C@@H](CC(C)C)C(=O)N[C@@H](CC(N)=O)C(=O)N[C@@H](C)C(=O)N[C@H](C(=O)N[C@@H](CCC(N)=O)C(=O)N[C@@H](Cc2c[nH]cn2)C(N)=O)C(C)C)NC(=O)[C@H](CC(C)C)NC(=O)[C@H](CC(C)C)NC(=O)[C@H](CCCNC(=N)N)NC(=O)[C@H](CC(=O)O)NC(=O)[C@H](CC(C)C)NC(=O)[C@H](CCC(=O)O)NC1=O` [Peptide 1920, Ac-SLGSNLR8ELDRLLS5ELNAVQH-NH2] (Ac-SLGSNL[R8]ELDRLL[S5]ELNAVQH-NH2; staple 7-14), the inhibition constant Ki in assay [1] (read-out: FP Ki) was 25 µM. The Kd in assay [2] (read-out: SPR KD) is 7 µM and 6.95 µM.
For the compound `CC(=O)N[C@@H](CC(N)=O)C(=O)N[C@@H](CC(C)C)C(=O)N[C@]1(C)CCCCCCC=CCCC[C@@](C)(C(=O)N[C@@H](CCC(=O)O)C(=O)N[C@@H](CC(C)C)C(=O)N[C@@H](CC(N)=O)C(N)=O)NC(=O)[C@H](Cc2c[nH]c3ccccc23)NC(=O)[C@H](CC(C)C)NC(=O)[C@H](CCCNC(=N)N)NC(=O)[C@H](CC(=O)O)NC(=O)[C@H](CC(C)C)NC(=O)[C@H](CCC(=O)O)NC1=O` [Peptide 2007, Ac-NLR8ELDRLWS5ELN-NH2] (Ac-NL[R8]ELDRLW[S5]ELN-NH2; staple 3-10), the Ki in assay [1] (read-out: FP Ki) turned out to be 190 µM. Moreover, in assay [2] (read-out: SPR KD), the Kd was 73.1 µM. Further, the “binding and inhibitory properties (SPR/FP) in words, compared to 1907” value in assay [2] was “worse binding and inhibitory properties compared to 1907”.
In the case of `CCCCCCCCCCCCCC(=O)NCCCC[C@@H]1NC(=O)[C@H](CC(=O)O)NC(=O)[C@H](CC(C)C)NC(=O)[C@H](CCC(=O)O)NC(=O)[C@](C)(NC(=O)[C@H](CC(C)C)NC(=O)[C@H](CC(N)=O)NC(C)=O)CCCCCCC=CCCC[C@@](C)(C(=O)N[C@@H](CCC(=O)O)C(=O)N[C@@H](CC(C)C)C(=O)N[C@@H](CC(N)=O)C(N)=O)NC(=O)[C@H](CC(C)C)NC(=O)[C@H](CC(C)C)NC1=O` [Peptide 2029, Ac-NLR8ELDK(myristoyl)LLS5ELN-NH2] (Ac-NL[R8]ELDK(Myristoyl)LL[S5]ELN-NH2; staple 3-10), the dissociation constant Kd in assay [2] (SPR KD) amounted to 19.5 µM.
Turning to `CC(=O)N[C@@H](CC(N)=O)C(=O)N[C@@H](CC(C)C)C(=O)N[C@@H](CO)C(=O)N[C@@H](CCC(=O)O)C(=O)N[C@]1(C)CCCCCCC=CCCC[C@@](C)(C(=O)N[C@@H](CC(N)=O)C(N)=O)NC(=O)[C@H](CCC(=O)O)NC(=O)[C@H](CC(C)C)NC(=O)[C@H](CC(C)C)NC(=O)[C@H](CC(C)C)NC(=O)[C@H](CCCNC(=N)N)NC(=O)[C@H](CC(=O)O)NC1=O` [Peptide 1914, Ac-NLSER8DRLLLES5N-NH2] (Ac-NLSE[R8]DRLLLE[S5]N-NH2; staple 5-12), the Kd in assay [2] (read-out: SPR KD) came to 64.3 µM. The “binding and inhibitory properties (SPR/FP) in words, compared to 1907” value in assay [2] was “limited activity compared to 1907”.
For `CC(=O)N[C@@H](CC(N)=O)C(=O)N[C@@H](CC(C)C)C(=O)N[C@@H](CO)C(=O)N[C@]1(C)CCCCCCC=CCCC[C@@](C)(C(=O)N[C@@H](CC(C)C)C(=O)N[C@@H](CC(N)=O)C(N)=O)NC(=O)[C@H](CC(C)C)NC(=O)[C@H](CC(C)C)NC(=O)[C@H](CC(C)C)NC(=O)[C@H](CCCNC(=N)N)NC(=O)[C@H](CC(=O)O)NC(=O)[C@H](CC(C)C)NC1=O` [Peptide 1905, Ac-NLSR8LDRLLLS5LN-NH2] (Ac-NLS[R8]LDRLLL[S5]LN-NH2; staple 4-11), the Kd in assay [2] (read-out: SPR KD) is greater than 200 µM. Further, in assay [2], the “binding and inhibitory properties (SPR/FP) in words, compared to 1907” value is “no binding and inhibitory properties”.
Regarding `CC(=O)N[C@@H](CC(N)=O)C(=O)N[C@@H](CC(C)C)C(=O)NC(C)(C)C(=O)N[C@@H](CCC(=O)O)C(=O)N[C@@H](CC(C)C)C(=O)N[C@@H](CC(=O)O)C(=O)N[C@@H](CCCNC(=N)N)C(=O)N[C@@H](CC(C)C)C(=O)N[C@@H](CC(C)C)C(=O)NC(C)(C)C(=O)N[C@@H](CCC(=O)O)C(=O)N[C@@H](CC(C)C)C(=O)N[C@@H](CC(N)=O)C(N)=O` [Peptide 1912, Ac-NLAibELDRLLAibELN-NH2], the “binding and inhibitory properties (SPR/FP) in words, compared to 1907” value in assay [2] was “lower activity compared to 1907”.
Regarding `CC(=O)N[C@]1(C)CCCCCCC=CCCC[C@@](C)(C(N)=O)NC(=O)[C@H](CC(C)C)NC(=O)[C@H](CC(C)C)NC(=O)[C@H](CCCNC(=N)N)NC(=O)[C@H](CC(=O)O)NC(=O)[C@H](CC(C)C)NC(=O)[C@H](CCC(=O)O)NC1=O` [Peptide 2011, Ac-R8ELDRLLS5-NH2] (Ac-[R8]ELDRLL[S5]-NH2; staple 1-8), in assay [2], the “binding and inhibitory properties (SPR/FP) in words, compared to 1907” value is “no binding and inhibitory properties”.
Same read-out and setting: the result for `CC(=O)N[C@@H](CC(N)=O)C(=O)N[C@@H](CC(C)C)C(=O)N[C@]1(C)CCCCCCC=CCCC[C@@](C)(C(=O)N[C@@H](CCC(=O)O)C(=O)N[C@@H](CCC(=O)O)C(=O)N[C@@H](CC(N)=O)C(N)=O)NC(=O)[C@H](CC(C)C)NC(=O)[C@H](CC(C)C)NC(=O)[C@H](CCCNC(=N)N)NC(=O)[C@H](CC(=O)O)NC(=O)[C@H](CCC(=O)O)NC(=O)[C@H](CCC(=O)O)NC1=O` [Peptide 2014, Ac-NLR8EEDRLLS5EEN-NH2] (Ac-NL[R8]EEDRLL[S5]EEN-NH2; staple 3-10) reads “completely no binding and inhibitory properties”.
